Holding throughout (assay type): functional
One assay relates to BXPC-3. Briefly: Inhibitory activity against growth of human pancreatic cancer cell line BXPC-3 was determined.
For assay [1], the system named is DU-145. Briefly: Inhibitory activity against growth of human prostate cancer cell line DU-145 was determined.
The next assay has as its system KAT-4 cell line. Nature of the assay: Inhibitory activity against growth of human thyroid cancer cell line KAT-4 was determined.
A further assay concerns FaDu. Briefly: Inhibitory activity against growth of human pharynx cancer cell line FADU was determined.
A further assay deals with NCI-H460. Nature of the assay: Inhibitory activity against growth of human lung NSC cancer cell line NCI-H460 was determined.
Assay [2] relates to P388. Briefly: Inhibitory activity against growth of P388 leukemia cells was determined. The conditions noted are these: Mus musculus.
For a further assay, the system named is SW-1736. Nature of the assay: Inhibitory activity against growth of human thyroid cancer cell line SW1736 was determined.
Assay [3] has as its system P388. Nature of the assay: Effective dose that causes inhibition of growth of P388 leukemia cells was determined. The conditions noted are these: Mus musculus, read-out: ED50 (the source's name).
The test system of another assay is RPMI-7951. Briefly: Inhibitory activity against growth of human melanomic cancer cell line RPMI-7951 was determined.
Another assay has as its system U-251. Briefly: Inhibitory activity against growth of human CNS cancer cell line U251 was determined.
Assay [4] deals with DU-145. Briefly: Inhibitory activity against growth of human prostate cancer cell line DU-145 was determined.

Broadly, the GI50 is the concentration that inhibits growth by half.

Values after ≈ are worked out from the molar mass of the structure shown.

For `CC1(C)CCC[C@]2(C)[C@H]3C[C@@H](O)[C@]4(C)c5cocc5[C@H](O)C[C@H]4[C@]3(C)CC[C@@H]12` [SESTERSTATIN 4], the 50% growth inhibitory concentration (GI50) in the assay on BXPC-3 worked out at 1.6 µg/mL (≈ 4.14 µM); with DU-145 [1], 1.6 µg/mL (≈ 4.14 µM); in the assay with KAT-4 cell line, 2 µg/mL (≈ 5.17 µM); in the assay on FaDu, 2 µg/mL (≈ 5.17 µM); with NCI-H460, 1.8 µg/mL (≈ 4.66 µM); in the assay with P388 [2], 4.9 µg/mL (≈ 12.7 µM). This compound also returned a GI50 with SW-1736 of 2.1 µg/mL (≈ 5.43 µM). Besides, in the assay with P388 [3], the EC50 worked out at 4.87 µg/mL (≈ 12.6 µM).

On to `CC1(C)CCC[C@]2(C)[C@H]3C[C@@H](O)[C@]4(C)c5cocc5[C@@H](O)C[C@H]4[C@]3(C)CC[C@@H]12` [SESTERSTATIN 5], for which the concentration for 50% growth inhibition (GI50) in the assay with BXPC-3 was 2.2 µg/mL (≈ 5.69 µM); in the assay with RPMI-7951 it was 2.1 µg/mL (≈ 5.43 µM); in the assay on U-251, 1.9 µg/mL (≈ 4.91 µM); with FaDu, 1.9 µg/mL (≈ 4.91 µM); with NCI-H460, 2.5 µg/mL (≈ 6.47 µM); with P388 [2], over 10 µg/mL. This compound also came in with a GI50 in the assay on DU-145 [4] of 1.9 µg/mL (≈ 4.91 µM). Besides, the EC50 with P388 [3] was over 10 µg/mL.

The values are drawn from ChEMBL document CHEMBL1130918, “Antineoplastic agents. 397: Isolation and structure of sesterstatins 4 and 5 from Hyrtios erecta (the Republic of Maldives)” (1998).
